Results taken from US6441038B1, “Treatment of fatigue, head injury and stroke” (Laxdale Limited, priority 1999, dated 2002).

Key:
[1] = test system: brain lesions / LC function; conditions: animal studies, literature; cited from earlier work
[2] = test system: post-stroke depression and fatigue; experiment: Case History No. 2: depression and fatigue after stroke; assay type: in vivo, human; conditions: person; antidepressant alone

| Structure (SMILES) | effect on LC function and recovery of motor function after brain lesions [1] | effect on post-stroke depression and fatigue [2] |
| --- | --- | --- |
| CNCCCN1c2ccccc2CCc2ccccc21 [desipramine] | able to enhance |  |
| CN(CCCN1c2ccccc2CCc2ccccc21)CC(=O)c1ccc(Cl)cc1 [lofepramine] |  | without much success |
| CNCCC(Oc1ccc(C(F)(F)F)cc1)c1ccccc1 (stereo not shown) [fluoxetine] |  | without much success |
| CN(C)CCCN1c2ccccc2CCc2ccccc21 [imipramine] |  | without much success |
